Reference: patent publication US20240025887A1, “THIENYL AND CYCLOALKYL AMINOPYRIMIDINE COMPOUNDS AS INHIBITORS OF NUAK KINASES, COMPOSITIONS AND USES THEREOF” (Ontario Institute for Cancer Research (OICR), priority 2021, published 2024)

What was measured:
Assay type in all cases: biochemical
[1] = molecular target: T1, NUAK2 (h) (Homo sapiens, UniProt Q9H093); experiment: NUAK2 enzymatic assay (radiometric, Eurofins); conditions: for IC50: radiometric, full-length recombinant enzyme
T1 construct: This assay was done radiometrically using full-length, recombinant enzyme; purchased Eurofins
T1 sequence (Q9H093 1-628): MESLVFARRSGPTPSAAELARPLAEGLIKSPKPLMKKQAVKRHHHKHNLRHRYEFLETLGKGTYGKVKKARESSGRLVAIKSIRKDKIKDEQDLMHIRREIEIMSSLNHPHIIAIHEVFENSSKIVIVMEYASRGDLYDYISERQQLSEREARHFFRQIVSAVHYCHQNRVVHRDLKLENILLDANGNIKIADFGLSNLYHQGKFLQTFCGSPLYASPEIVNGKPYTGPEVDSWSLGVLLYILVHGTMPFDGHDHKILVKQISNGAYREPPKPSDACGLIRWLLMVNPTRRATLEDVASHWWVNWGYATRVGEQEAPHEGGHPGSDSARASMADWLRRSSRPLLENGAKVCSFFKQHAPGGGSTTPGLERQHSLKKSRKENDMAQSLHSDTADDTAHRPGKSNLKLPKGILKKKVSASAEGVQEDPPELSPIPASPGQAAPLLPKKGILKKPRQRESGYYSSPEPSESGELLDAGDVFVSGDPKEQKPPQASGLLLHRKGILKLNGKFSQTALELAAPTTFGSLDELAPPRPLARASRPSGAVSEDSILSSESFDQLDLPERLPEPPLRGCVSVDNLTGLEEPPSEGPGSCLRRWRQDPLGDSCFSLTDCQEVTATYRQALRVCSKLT
Description: (§1) To identify small molecule NUAK inhibitors, a biochemical NUAK2 enzymatic assay was outsourced to Eurofins. This assay was done radiometrically using full-length, recombinant enzyme. NUAK2 (h) was incubated with 8 mM MOPS pH 7.0, 0.2 mM EDTA, 300 μM […], 10 mM magnesium acetate and […] (specific activity and concentration as required). The reaction was initiated by the addition of the Mg/ATP mix. After incubation for 40 minutes at room temperature, the reaction was stopped by the addition of phosphoric acid to a concentration of 0.5%. 10 μL of the reaction was then spotted onto a P30 filter mat and washed four times for 4 minutes in 0.425% phosphoric acid and once in methanol prior to drying and scintillation counting. Compounds were routinely counter screened against Aurora A and NUAK1. The results are shown in Table 1 where IC50s are reported the following ranges: A: 0.1-10 nM; B: 11-100 nM; C: 101-1000 nM; D: >1000 nM for the compounds of Formula I)

[2] = molecular target: T2, NUAK1 (Homo sapiens, UniProt O60285); experiment: NUAK1 counter screen
T2 sequence (O60285 1-661): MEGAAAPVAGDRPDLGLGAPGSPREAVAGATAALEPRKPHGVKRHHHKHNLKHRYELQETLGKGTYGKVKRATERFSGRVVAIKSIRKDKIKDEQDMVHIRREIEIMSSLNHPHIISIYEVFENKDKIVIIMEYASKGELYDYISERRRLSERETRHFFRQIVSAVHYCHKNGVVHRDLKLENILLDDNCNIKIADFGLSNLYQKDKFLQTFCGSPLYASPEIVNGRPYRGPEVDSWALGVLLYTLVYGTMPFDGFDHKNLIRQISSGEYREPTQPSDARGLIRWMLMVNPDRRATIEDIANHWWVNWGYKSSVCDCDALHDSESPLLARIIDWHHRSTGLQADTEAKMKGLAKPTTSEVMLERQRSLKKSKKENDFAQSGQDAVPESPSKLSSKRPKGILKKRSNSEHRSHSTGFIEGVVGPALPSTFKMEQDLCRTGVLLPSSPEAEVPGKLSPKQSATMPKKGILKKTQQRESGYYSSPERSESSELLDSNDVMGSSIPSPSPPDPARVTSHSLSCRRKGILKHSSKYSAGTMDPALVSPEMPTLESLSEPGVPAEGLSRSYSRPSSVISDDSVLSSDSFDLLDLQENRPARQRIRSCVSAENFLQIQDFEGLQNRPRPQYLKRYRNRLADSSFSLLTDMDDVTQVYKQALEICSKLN
Description: as §1

[3] = molecular target: T3, Aurora A (Homo sapiens, UniProt O14965); experiment: Aurora A counter screen; conditions: read-out: AUR-A (IC50)
T3 sequence (O14965 1-403): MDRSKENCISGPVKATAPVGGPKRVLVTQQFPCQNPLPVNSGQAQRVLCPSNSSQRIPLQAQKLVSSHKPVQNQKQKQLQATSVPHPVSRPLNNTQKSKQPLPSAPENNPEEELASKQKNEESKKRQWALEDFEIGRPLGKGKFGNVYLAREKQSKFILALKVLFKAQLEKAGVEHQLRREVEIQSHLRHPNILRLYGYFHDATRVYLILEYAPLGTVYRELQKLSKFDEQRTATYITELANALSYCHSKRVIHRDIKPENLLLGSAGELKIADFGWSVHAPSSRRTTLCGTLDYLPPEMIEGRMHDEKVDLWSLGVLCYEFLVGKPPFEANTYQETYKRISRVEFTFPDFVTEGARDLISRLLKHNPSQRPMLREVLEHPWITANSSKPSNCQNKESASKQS
Description: as §1

Row | Compound | IC50 [1] [µM] | IC50 [2] [µM] | IC50 [3] [µM] | AUR-A (IC50, nM)/NUAK2 (IC50, nM) ([1]; NUAK2 selectivity over Aurora-A, ratio of IC50s)
1 | CC(C)N1C[C@@H]2C[C@H]1CN2c1ccc(Nc2ncc(Cl)c(Nc3ccsc3C(N)=O)n2)c(OC(F)F)c1 (stereo in doubt) [Compound I-35, 3-((5-chloro-2-((2-(difluoromethoxy)-4-((1S,4S)-5-isopropyl-2,5-diazabicyclo[2.2.1]heptan-2-yl)phenyl)amino)pyrimidin-4-yl)amino)thiophene-2-carboxamide] | 0.011 to 0.1 | 0.011 to 0.1 | 0.101 to 1 | –
2 | CN(C1CCCCC1)C1CCN(c2ccc(Nc3ncc(Cl)c(Nc4ccsc4C(N)=O)n3)c(OC(F)F)c2)CC1 [Compound I-73, 3-((5-chloro-2-((4-(4-(cyclohexyl(methyl)amino)piperidin-1-yl)-2-(difluoromethoxy)phenyl)amino)pyrimidin-4-yl)amino)thiophene-2-carboxamide] | 0.011 to 0.1 | 0.011 to 0.1 | 0.101 to 1 | –
3 | CN1CCc2cc(OC(F)F)c(Nc3ncc(Cl)c(Nc4ccsc4C(N)=O)n3)cc2C1 [Compound I-26, 3-((5-chloro-2-((6-(difluoromethoxy)-2-methyl-1,2,3,4-tetrahydroisoquinolin-7-yl)amino)pyrimidin-4-yl)amino)thiophene-2-carboxamide] | 0.011 to 0.1 | 0.101 to 1 | 0.101 to 1 | –
4 | CN1CCN(c2ccc(Nc3ncc(Cl)c(Nc4sccc4C(N)=O)n3)c(OC(F)(F)F)c2)CC1 [Compound I-19, 2-((5-chloro-2-((4-(4-methylpiperazin-1-yl)-2-(trifluoromethoxy)phenyl)amino)pyrimidin-4-yl)amino)thiophene-3-carboxamide] | 0.011 to 0.1 | 0.101 to 1 | > 1 | –
5 | CC(C)(C)N1CCN(c2ccc(Nc3ncc(Cl)c(Nc4ccsc4C(N)=O)n3)c(OC(F)F)c2)CC1 [Compound I-20, 3-((2-((4-(4-(tert-butyl)piperazin-1-yl)-2-(difluoromethoxy)phenyl)amino)-5-chloropyrimidin-4-yl)amino)thiophene-2-carboxamide] | 0.0001 to 0.01 | 0.0001 to 0.01 | 0.101 to 1 | –
6 | CN(C)C1CCN(c2ccc(Nc3ncc(Cl)c(Nc4ccsc4C(N)=O)n3)c(OC(F)F)c2)CC1 [Compound I-47, 3-((5-chloro-2-((2-(difluoromethoxy)-4-(4-(dimethylamino)piperidin-1-yl)phenyl)amino)pyrimidin-4-yl)amino)thiophene-2-carboxamide] | 0.011 to 0.1 | 0.0001 to 0.01 | 0.011 to 0.1 | –
7 | C[C@H]1CN(c2ccc(Nc3ncc(Cl)c(Nc4ccsc4C(N)=O)n3)c(OC(F)F)c2)CCN1C [Compound I-21, (S)-3-((5-chloro-2-((2-(difluoromethoxy)-4-(3,4-dimethylpiperazin-1-yl)phenyl)amino)pyrimidin-4-yl)amino)thiophene-2-carboxamide] | 0.0001 to 0.01 | 0.0001 to 0.01 | 0.011 to 0.1 | –
8 | C[C@@H]1CN(C2CCN(c3ccc(Nc4ncc(C(F)(F)F)c(Nc5ccsc5C(N)=O)n4)c(OC(F)F)c3)CC2)C[C@H](C)N1C [Compound I-67, 3-((2-((2-(difluoromethoxy)-4-(4-((3R,5S)-3,4,5-trimethylpiperazin-1-yl)piperidin-1-yl)phenyl)amino)-5-(trifluoromethyl)pyrimidin-4-yl)amino)thiophene-2-carboxamide] | 0.011 to 0.1 | 0.011 to 0.1 | 0.101 to 1 | –
9 | COc1cc(N2CCN(C)CC2)ccc1Nc1ncc(Cl)c(Nc2ccsc2C(N)=O)n1 [Compound C-1, reference compound] | 0.0001 to 0.01 | 0.0001 to 0.01 | 0.011 to 0.1 | 6
10 | CN1C[C@H]2C[C@@H]1CN2c1ccc(Nc2ncc(Cl)c(Nc3ccsc3C(N)=O)n2)c(OC(F)F)c1 [Compound I-9, 3-((5-chloro-2-((2-(difluoromethoxy)-4-((1R,4R)-5-methyl-2,5-diazabicyclo[2.2.1]heptan-2-yl)phenyl)amino)pyrimidin-4-yl)amino)thiophene-2-carboxamide] | 0.0001 to 0.01 | 0.011 to 0.1 | 0.101 to 1 | –
11 | C[C@@H]1CN(C2CCN(c3ccc(Nc4ncc(Cl)c(Nc5ccsc5C(N)=O)n4)c(OC(F)F)c3)CC2)C[C@@H](C)N1C [Compound I-69, 3-((5-chloro-2-((2-(difluoromethoxy)-4-(4-((3R,5R)-3,4,5-trimethylpiperazin-1-yl)piperidin-1-yl)phenyl)amino)pyrimidin-4-yl)amino)thiophene-2-carboxamide] | 0.0001 to 0.01 | 0.011 to 0.1 | 0.011 to 0.1 | –
12 | CN1CCN(C2CCN(c3ccc(Nc4ncc(Cl)c(Nc5ccsc5C(N)=O)n4)c(OC(F)F)c3F)CC2)CC1 [Compound I-40, 3-((5-chloro-2-((2-(difluoromethoxy)-3-fluoro-4-(4-(4-methylpiperazin-1-yl)piperidin-1-yl)phenyl)amino)pyrimidin-4-yl)amino)thiophene-2-carboxamide] | 0.101 to 1 | 0.101 to 1 | > 1 | –
13 | CC(C)N1CCN(C2CCN(c3ccc(Nc4ncc(Cl)c(Nc5ccsc5C(N)=O)n4)c(OC(F)F)c3)CC2)CC1 [Compound I-62, 3-((5-chloro-2-((2-(difluoromethoxy)-4-(4-(4-isopropylpiperazin-1-yl)piperidin-1-yl)phenyl)amino)pyrimidin-4-yl)amino)thiophene-2-carboxamide] | 0.011 to 0.1 | 0.011 to 0.1 | 0.101 to 1 | –
14 | CN1CCN(c2ccc(Nc3ncc(Cl)c(Nc4ccsc4C(N)=O)n3)c(C(F)(F)F)c2)CC1 [Compound I-46, 3-((5-chloro-2-((4-(4-methylpiperazin-1-yl)-2-(trifluoromethyl)phenyl)amino)pyrimidin-4-yl)amino)thiophene-2-carboxamide] | 0.011 to 0.1 | 0.011 to 0.1 | > 1 | –
15 | NC(=O)c1ccsc1Nc1nc(Nc2ccc(N3CCN(CC(F)(F)F)CC3)cc2OC(F)F)ncc1Cl [Compound I-34, 2-((5-chloro-2-((2-(difluoromethoxy)-4-(4-(2,2,2-trifluoroethyl)piperazin-1-yl)phenyl)amino)pyrimidin-4-yl)amino)thiophene-3-carboxamide] | 0.101 to 1 | 0.101 to 1 | 0.101 to 1 | –
16 | CN(C)[C@H]1CCN(c2ccc(Nc3ncc(Cl)c(Nc4ccsc4C(N)=O)n3)c(OC(F)F)c2)C1 [Compound I-56, (S)-3-((5-chloro-2-((2-(difluoromethoxy)-4-(3-(dimethylamino)pyrrolidin-1-yl)phenyl)amino)pyrimidin-4-yl)amino)thiophene-2-carboxamide] | 0.011 to 0.1 | 0.0001 to 0.01 | 0.101 to 1 | –
17 | CN1CCN(c2ccc(Nc3ncc(F)c(Nc4ccsc4C(N)=O)n3)c(OC(F)F)c2)CC1 [Compound I-37, 3-((2-((2-(difluoromethoxy)-4-(4-methylpiperazin-1-yl)phenyl)amino)-5-fluoropyrimidin-4-yl)amino)thiophene-2-carboxamide] | 0.011 to 0.1 | 0.011 to 0.1 | 0.101 to 1 | –
